Experimental data reported in ChEMBL document CHEMBL3856191, “Structural modifications at the 6-position of thieno[2,3-d]pyrimidines and their effects on potency at FLT3 for treatment of acute myeloid leukemia” (Eur J Med Chem, 2016).

Tests used:
[1] = Metabolic stability in human liver microsomes assessed as compound remaining at 1 uM after 30 mins in presence of NADPH by HPLC-MS analysis; type: ADME; settings: read-out: Stability
[2] = tested on: Tyrosine-protein kinase ABL1 (Homo sapiens), P00519 [T315I]; experiment: Inhibition of human ABL T315I mutant assessed as remaining activity at 10 uM preincubated for 15 mins followed by poly(Glu:Tyr) substrate addition for 30 mins in presence of [gamma-32P]ATP by […] assay
[3] = molecular target: Serine-protein kinase ATM (Homo sapiens) (UniProt Q13315); experiment: Inhibition of human ATM assessed as remaining activity at 10 uM preincubated for 15 mins followed by substrate addition for 30 mins in presence of [gamma-32P]ATP by […] assay
Chain of Serine-protein kinase ATM (Homo sapiens) (Q13315 whole entry): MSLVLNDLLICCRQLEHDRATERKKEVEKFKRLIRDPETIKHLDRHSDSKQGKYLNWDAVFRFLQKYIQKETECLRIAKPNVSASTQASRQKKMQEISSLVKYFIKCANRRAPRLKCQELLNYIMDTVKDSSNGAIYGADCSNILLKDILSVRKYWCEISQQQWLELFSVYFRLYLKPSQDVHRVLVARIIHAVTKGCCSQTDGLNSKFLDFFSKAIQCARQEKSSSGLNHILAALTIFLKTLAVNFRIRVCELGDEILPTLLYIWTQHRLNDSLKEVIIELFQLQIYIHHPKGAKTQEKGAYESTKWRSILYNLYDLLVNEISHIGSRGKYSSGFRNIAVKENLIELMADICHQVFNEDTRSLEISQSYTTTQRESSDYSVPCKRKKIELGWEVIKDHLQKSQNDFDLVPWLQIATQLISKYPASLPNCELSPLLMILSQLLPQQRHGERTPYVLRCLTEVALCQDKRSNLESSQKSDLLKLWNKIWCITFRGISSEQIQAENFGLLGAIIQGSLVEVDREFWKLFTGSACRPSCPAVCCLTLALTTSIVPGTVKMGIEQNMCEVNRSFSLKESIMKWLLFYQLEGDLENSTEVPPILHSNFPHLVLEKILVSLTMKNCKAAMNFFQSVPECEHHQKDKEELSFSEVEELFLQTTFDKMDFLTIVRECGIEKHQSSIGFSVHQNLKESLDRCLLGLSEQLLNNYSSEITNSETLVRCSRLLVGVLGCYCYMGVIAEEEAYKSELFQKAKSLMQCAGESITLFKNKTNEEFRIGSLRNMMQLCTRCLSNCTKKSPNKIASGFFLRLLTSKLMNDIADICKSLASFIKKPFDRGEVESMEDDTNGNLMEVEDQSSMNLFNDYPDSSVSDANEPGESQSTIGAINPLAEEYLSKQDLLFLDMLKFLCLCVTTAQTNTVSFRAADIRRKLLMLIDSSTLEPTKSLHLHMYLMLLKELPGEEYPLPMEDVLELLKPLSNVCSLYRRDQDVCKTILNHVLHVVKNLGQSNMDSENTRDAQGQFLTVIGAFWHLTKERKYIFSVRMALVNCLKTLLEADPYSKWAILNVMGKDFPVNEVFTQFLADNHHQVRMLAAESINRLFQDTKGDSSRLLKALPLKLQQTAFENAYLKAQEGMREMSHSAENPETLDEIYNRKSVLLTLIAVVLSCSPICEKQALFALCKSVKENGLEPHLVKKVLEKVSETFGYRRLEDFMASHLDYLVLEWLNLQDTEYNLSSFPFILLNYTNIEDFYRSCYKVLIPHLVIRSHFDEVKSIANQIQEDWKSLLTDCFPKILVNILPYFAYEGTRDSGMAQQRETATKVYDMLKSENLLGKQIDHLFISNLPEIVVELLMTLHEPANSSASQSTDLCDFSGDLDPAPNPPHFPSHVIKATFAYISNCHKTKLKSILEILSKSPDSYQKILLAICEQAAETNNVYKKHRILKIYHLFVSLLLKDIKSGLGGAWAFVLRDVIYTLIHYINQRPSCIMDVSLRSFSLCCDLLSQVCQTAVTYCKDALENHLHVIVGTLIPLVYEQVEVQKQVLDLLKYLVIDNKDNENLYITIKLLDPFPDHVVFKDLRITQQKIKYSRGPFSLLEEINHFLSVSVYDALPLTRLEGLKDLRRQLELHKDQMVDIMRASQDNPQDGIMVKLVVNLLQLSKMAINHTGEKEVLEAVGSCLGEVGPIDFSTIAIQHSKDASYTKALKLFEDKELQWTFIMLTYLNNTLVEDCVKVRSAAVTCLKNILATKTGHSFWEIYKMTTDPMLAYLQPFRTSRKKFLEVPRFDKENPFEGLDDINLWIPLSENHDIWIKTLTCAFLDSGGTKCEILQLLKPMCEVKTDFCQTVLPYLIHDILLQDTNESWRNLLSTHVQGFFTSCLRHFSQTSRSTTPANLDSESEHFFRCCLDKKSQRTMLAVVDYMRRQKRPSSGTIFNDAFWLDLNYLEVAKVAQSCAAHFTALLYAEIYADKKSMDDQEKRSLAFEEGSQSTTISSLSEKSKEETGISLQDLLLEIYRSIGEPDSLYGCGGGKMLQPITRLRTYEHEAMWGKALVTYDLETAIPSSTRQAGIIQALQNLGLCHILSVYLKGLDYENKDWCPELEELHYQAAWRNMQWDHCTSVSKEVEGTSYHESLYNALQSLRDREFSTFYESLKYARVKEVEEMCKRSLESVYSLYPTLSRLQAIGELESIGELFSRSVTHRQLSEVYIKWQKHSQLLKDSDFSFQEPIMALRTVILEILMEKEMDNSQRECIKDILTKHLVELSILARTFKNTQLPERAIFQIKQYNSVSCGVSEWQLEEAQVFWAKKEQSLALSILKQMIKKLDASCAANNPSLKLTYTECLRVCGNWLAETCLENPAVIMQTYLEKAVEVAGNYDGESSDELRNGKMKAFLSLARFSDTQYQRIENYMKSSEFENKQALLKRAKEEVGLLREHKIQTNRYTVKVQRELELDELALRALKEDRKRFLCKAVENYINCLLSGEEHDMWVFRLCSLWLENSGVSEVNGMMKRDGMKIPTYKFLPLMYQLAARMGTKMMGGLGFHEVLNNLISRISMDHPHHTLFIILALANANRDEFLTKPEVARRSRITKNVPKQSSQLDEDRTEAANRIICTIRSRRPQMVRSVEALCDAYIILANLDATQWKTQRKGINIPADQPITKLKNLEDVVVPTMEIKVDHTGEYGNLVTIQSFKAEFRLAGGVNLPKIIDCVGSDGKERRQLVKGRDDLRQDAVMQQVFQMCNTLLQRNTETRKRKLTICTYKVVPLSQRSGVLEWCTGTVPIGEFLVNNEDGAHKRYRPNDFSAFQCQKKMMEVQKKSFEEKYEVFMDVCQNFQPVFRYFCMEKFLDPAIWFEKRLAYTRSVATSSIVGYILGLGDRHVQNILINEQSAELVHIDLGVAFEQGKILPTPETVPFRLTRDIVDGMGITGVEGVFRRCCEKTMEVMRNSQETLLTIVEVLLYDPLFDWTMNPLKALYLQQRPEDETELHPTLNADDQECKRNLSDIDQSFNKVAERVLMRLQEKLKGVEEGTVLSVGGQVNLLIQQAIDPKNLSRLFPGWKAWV

[4] = molecular target: Tyrosine-protein kinase receptor UFO (Homo sapiens) (UniProt P30530); experiment: Inhibition of recombinant human AXL expressed in insect Sf21 cells assessed as remaining activity at 10 uM preincubated for 15 mins followed by poly(Glu:Tyr) substrate addition for 30 mins in presence of [gamma-32P]ATP by […] assay
[5] = molecular target: Vascular endothelial growth factor receptor 1 (Homo sapiens) (UniProt P17948); experiment: Inhibition of recombinant human FLT1 expressed in insect Sf21 cells assessed as remaining activity at 10 uM preincubated for 15 mins followed by poly(Glu:Tyr) substrate addition for 30 mins in presence of [gamma-32P]ATP by […] assay
[6] = molecular target: Macrophage colony-stimulating factor 1 receptor (Homo sapiens) (UniProt P07333); experiment: Inhibition of recombinant human FMS expressed in insect Sf21 cells assessed as remaining activity at 10 uM preincubated for 15 mins followed by poly(Glu:Tyr) substrate addition for 30 mins in presence of [gamma-32P]ATP by […] assay
[7] = molecular target: Tyrosine-protein kinase JAK1 (Homo sapiens) (UniProt P23458); experiment: Inhibition of human JAK1 assessed as remaining activity at 10 uM in presence of [gamma-32P]ATP by […] assay
[8] = molecular target: Tyrosine-protein kinase JAK2 (Homo sapiens) (UniProt O60674); experiment: Inhibition of recombinant human JAK2 expressed in insect cells assessed as remaining activity at 10 uM preincubated for 15 mins followed by poly(Glu:Tyr) substrate addition for 30 mins in presence of [gamma-32P]ATP by […] assay
[9] = molecular target: Mitogen-activated protein kinase 8 (Homo sapiens) (UniProt P45983); experiment: Inhibition of recombinant human JNK1alpha1 expressed in insect Sf21 cells assessed as remaining activity at 10 uM preincubated for 15 mins followed by ATF2 substrate addition for 30 mins in presence of [gamma-32P]ATP by […] assay
[10] = molecular target: Vascular endothelial growth factor receptor 2 (Homo sapiens) (UniProt P35968); experiment: Inhibition of recombinant human KDR expressed in insect Sf21 cells assessed as remaining activity at 10 uM preincubated for 15 mins followed by poly(Glu:Tyr) substrate addition for 30 mins in presence of [gamma-32P]ATP by […] assay
Chain of Vascular endothelial growth factor receptor 2 (Homo sapiens) (P35968 whole entry): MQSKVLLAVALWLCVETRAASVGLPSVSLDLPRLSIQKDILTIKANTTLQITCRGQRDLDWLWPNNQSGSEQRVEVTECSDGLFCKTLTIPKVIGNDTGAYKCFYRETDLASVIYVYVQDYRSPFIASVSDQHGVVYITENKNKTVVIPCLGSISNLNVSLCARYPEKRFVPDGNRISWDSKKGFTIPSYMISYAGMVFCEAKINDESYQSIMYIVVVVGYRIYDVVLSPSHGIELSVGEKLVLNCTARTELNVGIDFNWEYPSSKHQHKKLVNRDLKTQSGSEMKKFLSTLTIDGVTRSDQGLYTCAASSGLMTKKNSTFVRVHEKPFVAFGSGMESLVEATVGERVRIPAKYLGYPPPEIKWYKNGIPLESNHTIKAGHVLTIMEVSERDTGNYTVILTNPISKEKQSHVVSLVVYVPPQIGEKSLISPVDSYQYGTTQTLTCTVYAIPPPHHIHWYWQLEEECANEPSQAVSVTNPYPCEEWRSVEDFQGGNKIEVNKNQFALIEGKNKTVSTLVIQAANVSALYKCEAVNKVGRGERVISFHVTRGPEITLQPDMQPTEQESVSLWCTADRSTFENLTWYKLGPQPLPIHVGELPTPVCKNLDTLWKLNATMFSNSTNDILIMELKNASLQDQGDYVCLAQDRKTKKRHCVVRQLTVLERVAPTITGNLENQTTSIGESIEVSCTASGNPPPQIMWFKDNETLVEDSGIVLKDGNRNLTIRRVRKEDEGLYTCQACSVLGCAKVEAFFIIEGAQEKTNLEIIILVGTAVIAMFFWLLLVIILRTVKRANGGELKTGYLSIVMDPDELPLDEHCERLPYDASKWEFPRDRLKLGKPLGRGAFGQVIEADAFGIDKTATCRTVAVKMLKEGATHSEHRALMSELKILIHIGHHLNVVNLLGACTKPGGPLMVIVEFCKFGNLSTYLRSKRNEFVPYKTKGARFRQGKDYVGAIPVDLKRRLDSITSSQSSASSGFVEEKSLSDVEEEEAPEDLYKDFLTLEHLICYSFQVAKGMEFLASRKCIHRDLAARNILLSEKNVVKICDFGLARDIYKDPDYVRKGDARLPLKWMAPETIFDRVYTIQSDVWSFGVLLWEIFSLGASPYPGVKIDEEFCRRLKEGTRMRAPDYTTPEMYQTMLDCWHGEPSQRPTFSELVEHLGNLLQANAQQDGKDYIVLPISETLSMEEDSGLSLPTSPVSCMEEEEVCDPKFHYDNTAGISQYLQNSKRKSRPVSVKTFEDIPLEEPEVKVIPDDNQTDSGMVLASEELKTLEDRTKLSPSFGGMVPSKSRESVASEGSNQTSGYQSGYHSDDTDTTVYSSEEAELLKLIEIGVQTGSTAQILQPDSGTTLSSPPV

[11] = molecular target: Tyrosine-protein kinase Lck (Homo sapiens) (UniProt P06239); experiment: Inhibition of recombinant human LCK expressed in insect cells assessed as remaining activity at 10 uM preincubated for 15 mins followed by poly(Glu:Tyr) substrate addition for 30 mins in presence of [gamma-32P]ATP by […] assay
[12] = molecular target: Serine/threonine-protein kinase mTOR (Homo sapiens) (UniProt P42345); experiment: Inhibition of human mTOR assessed as remaining activity at 10 uM in presence of [gamma-32P]ATP by […] assay
[13] = molecular target: cAMP-dependent protein kinase catalytic subunit alpha (Homo sapiens) (UniProt P17612); experiment: Inhibition of human recombinant PRKACA expressed in Escherichia coli assessed as remaining activity at 10 uM preincubated for 15 mins followed by PKA substrate peptide addition measured after 30 mins in presence of [gamma-32P]ATP by […] assay
[14] = molecular target: PI3K p110 beta/p85 alpha (Homo sapiens) (UniProt P27986+P42338); experiment: Inhibition of PI3K p110beta/p85alpha (unknown origin) assessed as remaining activity at 10 uM in presence of [gamma-32P]ATP by […] assay; type: protein-complex assay
[15] = molecular target: Serine/threonine-protein kinase pim-1 (Homo sapiens) (UniProt P11309); experiment: Inhibition of recombinant human PIM1 expressed in Escherichia coli assessed as remaining activity at 10 uM preincubated for 15 mins followed by S6 kinase/Rsk2 substrate peptide 2 addition for 30 mins in presence of [gamma-32P]ATP by […] assay
Chain of Serine/threonine-protein kinase pim-1 (Homo sapiens) (P11309 whole entry, looked up): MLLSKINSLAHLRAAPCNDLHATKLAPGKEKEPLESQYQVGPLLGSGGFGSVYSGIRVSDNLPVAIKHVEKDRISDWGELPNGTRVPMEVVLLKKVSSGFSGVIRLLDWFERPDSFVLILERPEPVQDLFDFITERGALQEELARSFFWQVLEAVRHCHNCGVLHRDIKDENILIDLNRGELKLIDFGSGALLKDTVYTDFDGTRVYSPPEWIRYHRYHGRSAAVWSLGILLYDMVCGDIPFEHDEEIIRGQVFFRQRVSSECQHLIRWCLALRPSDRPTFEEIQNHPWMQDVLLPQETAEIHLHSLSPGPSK

[16] = molecular target: Rho-associated protein kinase 2 (Homo sapiens) (UniProt O75116); experiment: Inhibition of human recombinant ROCK-2 expressed in sf21 cells assessed as remaining activity at 10 uM preincubated for 15 mins followed by Long S6 kinase substrate addition measured after 30 mins in presence of [gamma-32P]ATP by […] assay
[17] = molecular target: Mitogen-activated protein kinase 11 (Homo sapiens) (UniProt Q15759); experiment: Inhibition of human SAPK2b assessed as remaining activity at 10 uM in presence of [gamma-32P]ATP by […] assay
Chain of Mitogen-activated protein kinase 11 (Homo sapiens) (Q15759 whole entry): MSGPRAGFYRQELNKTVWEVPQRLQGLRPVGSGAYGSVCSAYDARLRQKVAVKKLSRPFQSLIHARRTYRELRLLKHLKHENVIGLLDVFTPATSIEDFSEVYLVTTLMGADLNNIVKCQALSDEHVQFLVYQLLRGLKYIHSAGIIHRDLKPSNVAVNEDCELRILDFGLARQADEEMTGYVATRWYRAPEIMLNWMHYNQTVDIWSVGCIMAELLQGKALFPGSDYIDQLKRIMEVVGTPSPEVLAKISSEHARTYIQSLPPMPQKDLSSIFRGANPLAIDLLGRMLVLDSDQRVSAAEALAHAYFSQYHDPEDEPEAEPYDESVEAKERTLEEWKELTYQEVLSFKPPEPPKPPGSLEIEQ

[18] = molecular target: Mitogen-activated protein kinase 12 (Homo sapiens) (UniProt P53778); experiment: Inhibition of human SAPK3 assessed as remaining activity at 10 uM in presence of [gamma-32P]ATP by […] assay
[19] = molecular target: Tyrosine-protein kinase ABL1 (Homo sapiens, UniProt P00519); experiment: Inhibition of recombinant human ABL1 expressed in insect cells preincubated for 15 mins followed by poly(Glu:Tyr) substrate addition for 30 mins in presence of [gamma-32P]ATP by […] assay
[20] = Elimination half life in Sprague-Dawley rat at 30 mg/kg, po by LC/MS/MS analysis; type: ADME, organism-based; settings: in vivo, read-out: beta t1/2 (converted)
cells [21] = settings: Homo sapiens, HL-60, 48 h
Description: Growth inhibition of human HL60 cells expressing wild type FLT-3 after 48 hrs by XTT assay

cells [22] = settings: Homo sapiens, MV4-11, 48 h
Description: Growth inhibition of human MV4-11 cells expressing FLT3-ITD after 48 hrs by XTT assay

CNCCOc1ccc(-c2sc3nc(-c4cccs4)nc(NN4C(=O)C=C(C)C4=O)c3c2C)cc1.Cl
remaining at 0.5 h, 1 µM [1]: 79.8% | Activity [2]: 44% | Activity [3]: 30% | Activity [4]: 44% | Activity [5]: 40% | Activity [6]: 78% | Activity [7]: 111% | Activity [8]: 99% | Activity [9]: 96% | Activity [10]: 53% | Activity [11]: 31% | Activity [12]: 79% | Activity [13]: 112% | Activity [14]: 70% | Activity [15]: 46% | Activity [16]: 93% | Activity [17]: 90% | Activity [18]: 99% | IC50 [19]: 2.88 µM | half-life [20]: 15.2 h | GI50 (cells [21]): 0.25 µM | GI50 (cells [22]): 0.54 µM
